Test results from ChEMBL document CHEMBL2146391, “Glucose uptake stimulatory effect of 4-hydroxypipecolic acid by increased GLUT 4 translocation in skeletal muscle cells” (Bioorg Med Chem Lett, 2012).
Activity calls are given as the source filed them. The calls are words filed in the database; no cut-off is given here.

Experiments:
L6 [1] = assay: Induction of GLUT4 mRNA expression in rat L6-GLUT4myc myotubes at 25 uM after 16 hrs by semiquantitative RT-PCR analysis; type: functional, cell-based
L6 [2] = assay: Induction of PKB mRNA expression in rat L6-GLUT4myc myotubes at 25 uM after 16 hrs by semiquantitative RT-PCR analysis; type: functional, cell-based
L6 [3] = assay: Induction of IRS-1 mRNA expression in rat L6-GLUT4myc myotubes at 25 uM after 16 hrs by semiquantitative RT-PCR analysis; type: functional, cell-based
L6 [4] = assay: Increase of insulin-stimulated GLUT4 translocation from intracellular compartment into plasma membrane of rat L6-GLUT4myc myotubes at 25 uM after 16 hrs by O-phenylenediamide based enzymatic assay in presence of PI3K inhibitor wortmannin; type: functional, cell-based
L6 [5] = assay: Increase of insulin-stimulated GLUT4 translocation from intracellular compartment into plasma membrane of rat L6-GLUT4myc myotubes at 25 uM after 16 hrs by O-phenylenediamide based enzymatic assay; type: functional, cell-based
L6 [6] = assay: Cytotoxicity against rat L6-GLUT4myc myotubes assessed as change in protein level at 25 uM after 16 hrs; type: cell-based; conditions: l6, 16 h
L6 [7] = assay: Cytotoxicity against rat L6-GLUT4myc myotubes assessed as cell viability at 25 uM after 16 hrs by MTT assay; type: cell-based; conditions: l6, 16 h
L6 [8] = assay: Induction of GLUT4 translocation from intracellular compartment into plasma membrane of rat L6-GLUT4myc myotubes at 25 uM after 16 hrs by O-phenylenediamide based enzymatic assay relative to control; type: functional
L6 [9] = assay: Induction of GLUT4 translocation from intracellular compartment into plasma membrane of rat L6-GLUT4myc myotubes at 10 uM after 16 hrs by O-phenylenediamide based enzymatic assay; type: functional, cell-based
L6 [10] = assay: Induction of GLUT4 translocation from intracellular compartment into plasma membrane of rat L6-GLUT4myc myotubes at 25 uM by O-phenylenediamide based enzymatic assay relative to control; type: functional, cell-based; conditions: TDE = time-dependent effect
L6 [11] = assay: Induction of GLUT4 translocation from intracellular compartment into plasma membrane of rat L6-GLUT4myc myotubes after 16 hrs by O-phenylenediamide based enzymatic assay; type: functional, cell-based
L6 [12] = assay: Hypoglycemic activity in rat L6-GLUT4myc myotubes assessed as increase in 2-[3H]-deoxyglucose uptake at 25 uM after 16 hrs by scintillation counter relative to control; type: functional
L6 [13] = assay: Hypoglycemic activity in rat L6-GLUT4myc myotubes assessed as increase in 2-[3H]-deoxyglucose uptake at 5 uM after 16 hrs by scintillation counter; type: functional, cell-based
L6 [14] = assay: Hypoglycemic activity in rat L6-GLUT4myc myotubes assessed as increase in 2-[3H]-deoxyglucose uptake after 16 hrs by scintillation counter; type: functional, cell-based

O=C(O)C1C[C@@H](O)CCN1 (some centres undefined)
Activity (L6 [1]): inactive
Activity (L6 [2]): inactive
Activity (L6 [3]): Active
Activity (L6 [4]): inactive
Activity (L6 [5]): Active
Activity (L6 [6]): Non-toxic
Activity (L6 [7]): Non-toxic
Activity (L6 [8]): 130%
Activity (L6 [9]): Active
Activity (L6 [10]): tde
Activity (L6 [11]): Dose-dependent effect
fold change (FC) (L6 [12]): 1.25
Activity (L6 [13]): Active
Activity (L6 [14]): Dose-dependent effect
